Data: patent publication US20240148745A1, “COMPOUNDS FOR USE IN PROGRESSIVE MULTIPLE SCLEROSIS” (FONDAZIONE CENTRO SAN RAFFAELE, priority 2021, published 2024)

Tests used:
[1] = test system: rat oligodendrocyte progenitor CG4 line; test: Differentiation assay on rat oligodendrocyte progenitor CG4 line (HCS, mCherry+); assay type: cell-based; conditions: 1 μM; for CG4 differentiation compared with 9cis-RA positive control: secondary screen of 49 selected compounds, 5 days
Text: Primary validation on CG4 line toxicity and differentiation. An innovative OPC line was developed for fast and reliable high content screening (HCS) of small compounds inducing oligodendrocyte differentiation. The line was genetically engineered by lentiviral transduction of rat CG4 cells (PubMed=1613821; DOI=10.1002/jnr.490310125; Louis J. C., Magal E., Muir D., Manthorpe M., Varon S.; CG-4, a new bipotential glial cell line from rat brain, is capable of differentiating in vitro into either mature oligodendrocytes or type-2 astrocytes. J. Neurosci. Res. 31:193-204(1992) to express mCherry fluorescent reporter (Evercooren, Anne & Avellana-Adalid, V. & Vitry, Sandrine & Nait-Oumesmar, Brahim & Lachapelle, Francois. (1997). Expansion of Oligodendrocyte Progenitors for Myelin Repair. 10.1007/978-1-4615-5949-8_21) in mature oligodendrocytes only, and EGFP at all stage of the oligodendroglial lineage: both the generation of mature oligodendrocytes (wmNl-mCherry) and the morphological changes associated with differentiation (CMV-EGFP) can be therefore monitored in a single assay. mCherry expression occurred only in O4+/GalC+ differentiated oligodendrocytes and GFP was ubiquitously expressed at all developmental stages. The line so obtained was validated using compounds with well-established effects on oligodendrocyte differentiation (cAMP and T3). Cell-based assay was standardized on the HCS platform (ArrayScanXTI, Brain and Spine Institute (Paris), validating the pro-differentiation effects of clemastine^27 and 9cis-retinoic acid.^28 For HCS validation of 274 compounds identified through in silico screen, double-fluo CG4 line cells were plated in 96 well-plates, 6500 cells/cm^2 and left for 24 h in proliferation. The other day, compounds were added (1 μM) for next 5 days of differentiation, with ⅔ medium changed after 3 days. 9-cis Retinoic Acid (9cis-RA; […]) served as a positive control, negative controls were basal (N1) medium and vehicle (basal+0.1% DMSO). Each compound was tested in triplicate and were imaged with ArrayScanXTI system (35 fields/well) after 5 days of differentiation.
FIG. 4 provides a schematic representation of High Content Screening (HCS) validation of the 274 compounds identified through in silico screening using CG4 line. […] In addition, the whole short list of 160 non-toxic compounds were screened using the CG4 high content phenotypic assay to further confirm the data from primary screening and to potentially select additional compounds with pro-myelinating activities. From this screening of the short list, 49 hit compounds were identified that increase differentiation either of CG4 cells or primary OPCs (FIG. 6).

[2] = test system: rat primary OPC cultures; test: Differentiation of rat primary OPC into MBP+ OLs; assay type: cell-based; conditions: 96 h, 4 days of differentiation, read-out: MBP+ differentiation (MBP+/SOX10+ OLs plus compounds / plus basal medium)
Description: Secondary validation on primary rat OPC differentiation. Re-validation of the best performing compounds promoting OPC differentiation (fold change >1.5) was performed on primary rat OPC cultures in 96 well-plate run in triplicates by triple immunolabeling for CNPase, MBP and SOX10 as a readout. Compounds at […] were added for 4 days of differentiation and then cell cultures were imaged with ArrayScanXTI platform, number of MBP+OLs were quantified by semi-automated software. Basal medium served as a negative control, 9 cis-RA ([…]) was a positive control.
Re-validation of the 49 compounds selected from the short list (160 compounds) using rat primary OPC cultures (compounds tested in triplicates in 3 independent experiments. The secondary validation screen of these compounds performed on rat primary OPC cultures selected 17 best lead compounds with a pro-differentiation activity (MBP+/SOX10+OLs plus compounds/MBP+SOX10+ plus basal medium fold increase) induced a strong differentiation into MBP+OLs (fold increase >1.6). Results are shown in FIG. 7.

[3] = test system: human iPS-derived neuroprecursors; test: Differentiation of human iPS-derived neuroprecursors into MBP+ oligodendrocytes; assay type: cell-based; conditions: 1 μM in minimal medium, p<0.05
Text: NPC bearing a doxycycline inducible polycistronic construct containing SOX10, OLIG2 and NKX6.2^29 in a human safe harbor (passages 10 to 25) were singularized on day −3 by treatment with Accutase and plated on Matrigel-coated 12-well plates at a density of 100.000 cells per well in N2B27-medium containing equal parts of neurobasal (Invitrogen) and DMEM-F12 medium (Invitrogen) with 1:100 B27 supplement lacking vitamin A (Invitrogen), 1:200 N2 supplement (Invitrogen), 1% penicillin/streptomycin/glutamine (PSG), 3 μM CHIR99021 (Axon Medchem), 150 μM ascorbic acid and 0.5 μM SAG. The next day medium was changed to N2B27-medium containing 1 μg/ml doxycycline. On DO medium was changed to glial-induction medium (GIM) consisting of DMEM-F12 with 1:100 B27 supplement lacking vitamin A, 1:200 N2 supplement, 1% PSG, 1 μM SAG, 10 ng/mL NT3 (Peprotech), 10 ng/mL IGF-I (Peprotech), 200 μM AA (Sigma), 1:1000 Trace Elements B (Corning). For full medium conditions 10 ng/ml T3 was added. On Day 2 medium was changed to glial-differentiation medium (GDM) comprising DMEM-F12 with 1:100 B27 supplement lacking vitamin A, 1:200 N2 supplement, 1% PSG, 100 μM dbCAMP (Sigma), 100 μM AA, 1:1000. For full medium conditions 60 ng/mL T3, Trace Elements B 10 ng/mL, IGF-I, 10 ng/mL and NT3 were added to the culture. GDM was changed every other day. On day 7 cells were detached by treatment with Accutase and re-plated on laminin coated 48-well plates at densities of 10.000-12.000 cells per well. After 24 h cells were treated in minimal medium with either vehicle alone [0.01% (vol/vol) DMSO] as a negative control, 60 ng/mL T3 as a positive control, or with a drug candidate dissolved in DMSO. Medium was changed every other day. On D16 doxycycline was removed from the medium. Cells were fixed on D21 and analyzed via immunocytochemistry.
Immunocytochemistry. Cells were initially fixed with 4% PFA treatment for 20 min, RT. Following three washes with PBS cells were incubated with blocking solution containing 5% normal goat serum (NGS) and 5% FCS (fetal calf serum) in PBS for 30 min at RT to prevent unspecific binding of the antibodies. To detect intracellular antigens cells were permeabilized by adding 0.5% Triton X-100 to the Blocking-solution. Cells treated with Triton X-100 were washed three times with PBS each time for 5 min at RT. Primary antibodies (rat anti-MBP,1:50, Abcam, AB7349) were applied overnight, 4° C., in blocking solution. The next day cells were washed 3 times with PBS at RT, and afterwards incubated with secondary antibodies (AF488 Alexa Fluor anti-rat (goat), 1:500, Jackson/Dianova, #112-545-167) diluted in PBS for 1 h at RT. Secondary antibodies were subsequently removed by washing 3 times with PBS. Afterwards PBS containing a Dapi staining for nuclei was added for 5 minutes and afterwards washed off with PBS. Cells were kept at 4° C. until imaging.
Imaging and evaluation. From each condition (triplicates) 20-30 pictures were taken randomly chosen by the Dapi-signal. Cell numbers were determined by using an ImageJ Macro to count the nuclei whereas MBP positive cells were subsequently counted manually in black and white images.
The effect on oligodendroglial differentiation of 32 compounds (“Front runners”) was tested. Induced pluripotent stem cells in which the transcription factors SOX10, OLIG2, NKX6.2 were inserted in a doxycycline inducible manner into a human safe harbor were differentiated into neural stem cells. Differentiation into oligodendrocytes was induced by addition of doxycycline. Cells were cultured either in a minimal medium (MM) (negative control) or in MM with the different compounds at a concentration of 1 μM. Addition of T3 to the minimal medium served as a positive control.

[4] = test system: primary murine spinal cord culture; test: Myelinating cell cultures from primary murine spinal cord; assay type: cell-based, mouse; conditions: 1 μM
Description: Single cell suspensions are prepared from spinal cord of mouse embryos (E13) (adapted from Thomson, 2008) and 1.5×10^5 cells/well were plated into 96 well plates. Over time, these cultures mature and form axons, which later myelinate. Using spinal cord tissue facilitates the quantification of mature MBP+ oligodendrocytes and newly formed myelin by in-house high-content imaging system (Operetta High Content Imaging System, Perkin Elmer) with a 20× lens. From each well, 25 fields in a 5×5 matrix were scanned. Thirty-two “Front Runners” compounds were tested in replicates of five at 1 μM/DMSO, while T3, benzotropine and clemastine were used as positive controls, DMSO as negative/solvent control. Two experimental paradigms were applied: “Early treatment”: exposure to experimental agent from DIV7 to DIV14; “Late treatment”: exposure to experimental agent from DIV14-DIV21. On DIV21, cultures were fixed and stained (myelin: MBP, axons: NF200; nuclei: Hoechst). Imaging data were analysed using CellProfiler and in-house generated analysis pipeline.
Thirty-two “Front Runners” compounds were tested in replicates of five at 1 μM/DMSO, while T3, benztropine and clemastine were used as positive controls, DMSO as negative/solvent control. Two experimental paradigms were applied: “Early treatment”: exposure to experimental agent from DIV7 to DIV14; “Late treatment”: exposure to experimental agent from DIV14-DIV21. […] In “Late treatment” paradigm in myelin area evaluation were identified Vanoxerine, Roxadustat, Tamibarotene, Drinabant, Progesterone, Saracatinib. In quantification of myelinated axons were identified Vanoxerine, Drinabant, Roxadustat.

SMILES	CG4 differentiation compared with 9cis-RA positive control [1]	fold induction at 1 µM [2]	differentiation into MBP+ oligodendrocytes [3]	further results
COc1cc(OC)nc(O[C@H](C(=O)O)C(OC)(c2ccccc2)c2ccccc2)n1	promoting differentiation significantly higher than 9cis-RA positive control	> 1.6		
CN1[C@@H]2CC[C@H]1C[C@@H](OC(c1ccccc1)c1ccccc1)C2 [BENZATROPINE]	promoting differentiation significantly higher than 9cis-RA positive control	> 1.6		CG4 differentiation, fold increase relative to control [1]: over 1.5 fold
Cc1c(F)cccc1NC(=O)Nc1ccc(Cl)c(S(=O)(=O)[C@H]2CCCNC2)c1O [Danirixin]	promoting differentiation significantly higher than 9cis-RA positive control		promote significantly (p<0.05) the differentiation into MBP+ oligodendrocytes	
CS(=O)(=O)N(c1cc(F)cc(F)c1)C1CN(C(c2ccc(Cl)cc2)c2ccc(Cl)cc2)C1 [Drinabant]	promoting differentiation significantly higher than 9cis-RA positive control		promote significantly the differentiation into MBP+ oligodendrocytes	differentiation into MBP+ oligodendrocytes ([3]; listed as Drinibant): promote significantly (p<0.05) the differentiation into MBP+ oligodendrocytes; myelin area ([4]; Early treatment DIV7 to DIV14): identified; myelin area ([4]; Late treatment DIV14-DIV21): identified; quantification of myelinated axons ([4]; Late treatment DIV14-DIV21): identified
CNC(=O)c1cccc2cc(Oc3ccnc4cc(OCC5(N)CC5)c(OC)cc34)ccc12 [LUCITANIB]	promoting differentiation significantly higher than 9cis-RA positive control	> 1.6		
Cc1ccc(C(=O)Nc2ccc(Oc3cc4cnn(C)c4cc3-c3cn[nH]c3)c(F)c2)c(=O)n1-c1ccc(F)cc1 [Merestinib]	promoting differentiation significantly higher than 9cis-RA positive control		promote significantly (p<0.05) the differentiation into MBP+ oligodendrocytes	
FC(F)(F)c1ccc(CNc2ccc(Cc3c[nH]c4ncc(Cl)cc34)cn2)cn1 [PLX-3397]	promoting differentiation significantly higher than 9cis-RA positive control	> 1.6		
CC(C)(C)c1cc(NC(=O)Nc2ccc(-c3cn4c(n3)sc3cc(OCCN5CCOCC5)ccc34)cc2)no1 [Quizartinib]	promoting differentiation significantly higher than 9cis-RA positive control	> 1.6		
CNC(=O)c1cc(COc2nnc(Nc3ccc(Cl)cc3)c3ccoc23)ccn1 [Telatinib]	promoting differentiation significantly higher than 9cis-RA positive control	> 1.6	promote significantly (p<0.05) the differentiation into MBP+ oligodendrocytes	
Fc1ccc(C(OCCN2CCN(CCCc3ccccc3)CC2)c2ccc(F)cc2)cc1 [Vanoxerine]	promoting differentiation significantly higher than 9cis-RA positive control			myelin area ([4]; Early treatment DIV7 to DIV14): identified; quantification of myelinated axons ([4]; Early treatment DIV7 to DIV14): identified; myelin area ([4]; Late treatment DIV14-DIV21): identified; quantification of myelinated axons ([4]; Late treatment DIV14-DIV21): identified
